What is called IC50 is the concentration needed to halve the response being measured. For orientation: Kd means the equilibrium constant for the complex coming apart.

Assay [1] has as its system MV4-11. Description: Cell cycle arrest in human MV4-11 cells assessed as accumulation at G2 phase at 100 nM after 48 hrs by PI/RNase staining based FACS analysis (reference value: 13.95%). It counts as functional. For orientation: Flow cytometry measures light scatter and fluorescence of single cells or particles in a stream.
The test system of assay [2] is MV4-11. Put plainly: Cell cycle arrest in human MV4-11 cells assessed as accumulation at G0/G1 phase at 1000 nM after 48 hrs by PI/RNase staining based FACS analysis (reference value: 69.55%). It counts as functional.
Assay [3] has as its system MV4-11. Description: Cell cycle arrest in human MV4-11 cells assessed as accumulation at G2 phase at 1000 nM after 48 hrs by PI/RNase staining based FACS analysis (reference value: 13.95%). It is filed as functional.
Assay [4] concerns MV4-11. Put plainly: Cell cycle arrest in human MV4-11 cells assessed as accumulation at subG1 phase after 48 hrs by PI/RNase staining based FACS analysis. It is filed as functional.
Assay [5] deals with MV4-11. Description: Induction of apoptosis in human MV4-11 cells assessed as viable cells at 1 nM after 48 hrs by annexin V/propidium iodide staining based FACS analysis (reference value: 90.60%). It is filed as functional. Particulars: MV4-11, 48 h, read-out: Activity.
The subject of assay [6] is MV4-11. Description: Induction of apoptosis in human MV4-11 cells assessed as late apoptotic cells at 100 nM after 48 hrs by annexin V/propidium iodide staining based FACS analysis (reference value: 3.01%). It counts as functional.
Assay [7] relates to MV4-11. Put plainly: Induction of apoptosis in human MV4-11 cells assessed as early apoptotic cells at 1000 nM after 48 hrs by annexin V/propidium iodide staining based FACS analysis (reference value: 6.31%). It counts as functional.
Assay [8] relates to MV4-11. Description: Induction of apoptosis in human MV4-11 cells assessed as late apoptotic cells at 1000 nM after 48 hrs by annexin V/propidium iodide staining based FACS analysis (reference value: 3.01%). It counts as functional.
The test system of assay [9] is MV4-11. Description: Induction of apoptosis in human MV4-11 cells assessed as early apoptotic cells at 10000 nM after 48 hrs by annexin V/propidium iodide staining based FACS analysis (reference value: 6.31%). It is filed as functional.
Assay [10] relates to MOLT-4. Description: Antiproliferative activity against human MOLT4 cells after 72 hrs by MTT assay. It is filed as functional, cell-based. The conditions noted are these: MOLT-4, 72 h. On the technique in general: Tetrazolium dyes change colour on reduction, which living cells bring about.
The subject of assay [11] is A549. Description: Antiproliferative activity against human A549 cells after 72 hrs by SRB assay. It is filed as functional, cell-based. The conditions noted are these: A549, 72 h.
For assay [12], the system named is NCI-H1975. Put plainly: Antiproliferative activity against human NCI-H1975 cells after 72 hrs by SRB assay. It is filed as functional, cell-based. Particulars: NCI-H1975, 72 h. Background: Sulforhodamine B stains cellular protein and so reports cell mass.
In assay [13] the test system is MV4-11. Description: Antitumor activity against human MV4-11 cells xenografted in nude BALB/c mouse assessed as tumor growth inhibition administered orally qd for 14 days measured every 2 days. It is filed as functional.
For assay [14], the system named is MV4-11. Description: Antitumor activity against human MV4-11 cells xenografted in nude BALB/c mouse assessed as tumor growth inhibition at 25 mg/kg, po qd for 14 days measured every 2 days. Particulars: MV4-11, po, read-out: TGI. It is filed as functional.
Assay [15] deals with Receptor-type tyrosine-protein kinase FLT3 (Homo sapiens, UniProt P36888, D835H). Description: Binding affinity to human partial length FLT3 D835H mutant (592 to 969 residues) expressed in bacterial expression system after 1 hr.
Assay [16] addresses Receptor-type tyrosine-protein kinase FLT3 (Homo sapiens, UniProt P36888, D835V/ITD). Put plainly: Binding affinity to human partial length FLT3 ITD/D835V mutant expressed in mammalian expression system after 1 hr.
Assay [17] addresses Tyrosine-protein kinase JAK1 (Homo sapiens) (UniProt P23458). Put plainly: Inhibition of human JAK1 expressed in mammalian or bacterial system assessed as remaining enzyme activity at 1 uM relative to untreated control.
Assay [18] deals with Interleukin-1 receptor-associated kinase 1 (Homo sapiens) (UniProt P51617). Put plainly: Inhibition of human IRAK1 expressed in mammalian system assessed as remaining enzyme activity at 1 uM relative to untreated control.
Sequence of Interleukin-1 receptor-associated kinase 1 (Homo sapiens) (P51617 whole entry, looked up): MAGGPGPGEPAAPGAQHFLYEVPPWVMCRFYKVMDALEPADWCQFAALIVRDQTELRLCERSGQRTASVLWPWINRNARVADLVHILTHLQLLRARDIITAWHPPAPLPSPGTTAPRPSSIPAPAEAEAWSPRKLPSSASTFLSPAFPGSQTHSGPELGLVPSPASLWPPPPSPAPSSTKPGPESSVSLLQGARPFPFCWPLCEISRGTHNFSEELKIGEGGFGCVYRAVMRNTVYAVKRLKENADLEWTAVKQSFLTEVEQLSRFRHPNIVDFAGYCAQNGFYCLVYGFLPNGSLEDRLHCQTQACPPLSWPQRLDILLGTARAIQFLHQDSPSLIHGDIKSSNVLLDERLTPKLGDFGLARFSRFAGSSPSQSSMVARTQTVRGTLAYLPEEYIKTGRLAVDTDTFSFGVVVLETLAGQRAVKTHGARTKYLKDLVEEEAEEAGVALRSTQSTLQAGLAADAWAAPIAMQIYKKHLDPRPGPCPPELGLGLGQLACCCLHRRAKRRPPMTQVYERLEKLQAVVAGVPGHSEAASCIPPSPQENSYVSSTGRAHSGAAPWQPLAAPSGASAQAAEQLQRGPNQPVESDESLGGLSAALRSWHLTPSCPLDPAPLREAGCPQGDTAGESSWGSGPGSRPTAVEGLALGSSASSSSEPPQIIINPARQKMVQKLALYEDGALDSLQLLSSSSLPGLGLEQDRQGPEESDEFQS
Assay [19] relates to MV4-11. Put plainly: Antitumor activity against human MV4-11 cells xenografted in nude BALB/c mouse assessed as reduction in tumor cell proliferation by measuring Ki67 positive cells at 50 mg/kg, po qd measured after 1 to 3 days by immunohistochemical assay. It counts as functional, organism-based.
Assay [20] has as its system MV4-11. Description: Antitumor activity against human MV4-11 cells xenografted in nude BALB/c mouse assessed as induction of late stage apoptosis at 50 mg/kg, po qd measured after 1 to 3 days by TUNEL assay. It counts as functional, organism-based.
For assay [21], the system named is MV4-11. Put plainly: Cell cycle arrest in human MV4-11 cells assessed as cell debris level at 100 nM after 48 hrs by PI/RNase staining based FACS analysis. It counts as functional.
Assay [22] deals with Receptor-type tyrosine-protein kinase FLT3 (Homo sapiens), P36888 [UNDEFINED MUTATION]. Description: Inhibition of human FLT3 ITD/D835V mutant expressed in mammalian system assessed as remaining enzyme activity at 1 uM relative to untreated control.
Assay [23] has as its target T1, Receptor-type tyrosine-protein kinase FLT3 (Homo sapiens, UniProt P36888).
T1 sequence (P36888 whole entry): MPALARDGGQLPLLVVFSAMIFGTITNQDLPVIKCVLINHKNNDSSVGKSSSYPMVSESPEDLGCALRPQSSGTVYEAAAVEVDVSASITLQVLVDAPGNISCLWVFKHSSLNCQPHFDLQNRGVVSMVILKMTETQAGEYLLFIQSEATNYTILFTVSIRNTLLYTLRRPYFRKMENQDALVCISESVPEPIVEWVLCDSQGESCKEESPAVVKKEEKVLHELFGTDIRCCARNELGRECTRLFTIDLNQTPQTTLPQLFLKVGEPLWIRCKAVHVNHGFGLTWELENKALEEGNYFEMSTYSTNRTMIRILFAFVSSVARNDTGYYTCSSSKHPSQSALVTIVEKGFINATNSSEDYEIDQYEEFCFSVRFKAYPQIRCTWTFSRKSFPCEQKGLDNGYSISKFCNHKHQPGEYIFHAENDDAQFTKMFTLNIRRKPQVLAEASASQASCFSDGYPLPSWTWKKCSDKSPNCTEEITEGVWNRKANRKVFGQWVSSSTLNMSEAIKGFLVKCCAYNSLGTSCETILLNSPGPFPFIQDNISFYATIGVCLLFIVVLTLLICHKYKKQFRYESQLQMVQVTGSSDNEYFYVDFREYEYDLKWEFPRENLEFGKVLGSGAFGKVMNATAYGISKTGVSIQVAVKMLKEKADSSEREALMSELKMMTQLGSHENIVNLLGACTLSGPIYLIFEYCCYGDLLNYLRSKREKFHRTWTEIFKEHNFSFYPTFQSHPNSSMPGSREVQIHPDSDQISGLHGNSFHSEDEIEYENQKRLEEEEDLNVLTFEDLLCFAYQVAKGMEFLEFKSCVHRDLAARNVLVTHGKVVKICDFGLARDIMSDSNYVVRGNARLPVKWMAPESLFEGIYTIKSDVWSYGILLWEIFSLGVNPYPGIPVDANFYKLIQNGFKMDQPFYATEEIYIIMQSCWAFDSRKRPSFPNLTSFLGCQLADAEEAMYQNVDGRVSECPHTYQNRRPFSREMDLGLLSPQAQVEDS
Description: Inhibition of human N-terminal GST-tagged FLT3 (564 to 993 residues) expressed in baculovirus expression system using peptide FAM-P2 as substrate incubated for 10 mins followed by substrate addition by mobility shift assay

The subject of assay [24] is WI-38. Description: cells. Particulars: Homo sapiens, WI-38, 72 h.
Description: Antiproliferative activity against human WI38 cells after 72 hrs by SRB assay

SMILES strings stand for the structures. Active and inactive are the calls of the source. The rule behind the calls is not given here. A value given as a limit tells only on which side of the number the result lay.

Sequence of Tyrosine-protein kinase JAK1 (Homo sapiens) (P23458 whole entry): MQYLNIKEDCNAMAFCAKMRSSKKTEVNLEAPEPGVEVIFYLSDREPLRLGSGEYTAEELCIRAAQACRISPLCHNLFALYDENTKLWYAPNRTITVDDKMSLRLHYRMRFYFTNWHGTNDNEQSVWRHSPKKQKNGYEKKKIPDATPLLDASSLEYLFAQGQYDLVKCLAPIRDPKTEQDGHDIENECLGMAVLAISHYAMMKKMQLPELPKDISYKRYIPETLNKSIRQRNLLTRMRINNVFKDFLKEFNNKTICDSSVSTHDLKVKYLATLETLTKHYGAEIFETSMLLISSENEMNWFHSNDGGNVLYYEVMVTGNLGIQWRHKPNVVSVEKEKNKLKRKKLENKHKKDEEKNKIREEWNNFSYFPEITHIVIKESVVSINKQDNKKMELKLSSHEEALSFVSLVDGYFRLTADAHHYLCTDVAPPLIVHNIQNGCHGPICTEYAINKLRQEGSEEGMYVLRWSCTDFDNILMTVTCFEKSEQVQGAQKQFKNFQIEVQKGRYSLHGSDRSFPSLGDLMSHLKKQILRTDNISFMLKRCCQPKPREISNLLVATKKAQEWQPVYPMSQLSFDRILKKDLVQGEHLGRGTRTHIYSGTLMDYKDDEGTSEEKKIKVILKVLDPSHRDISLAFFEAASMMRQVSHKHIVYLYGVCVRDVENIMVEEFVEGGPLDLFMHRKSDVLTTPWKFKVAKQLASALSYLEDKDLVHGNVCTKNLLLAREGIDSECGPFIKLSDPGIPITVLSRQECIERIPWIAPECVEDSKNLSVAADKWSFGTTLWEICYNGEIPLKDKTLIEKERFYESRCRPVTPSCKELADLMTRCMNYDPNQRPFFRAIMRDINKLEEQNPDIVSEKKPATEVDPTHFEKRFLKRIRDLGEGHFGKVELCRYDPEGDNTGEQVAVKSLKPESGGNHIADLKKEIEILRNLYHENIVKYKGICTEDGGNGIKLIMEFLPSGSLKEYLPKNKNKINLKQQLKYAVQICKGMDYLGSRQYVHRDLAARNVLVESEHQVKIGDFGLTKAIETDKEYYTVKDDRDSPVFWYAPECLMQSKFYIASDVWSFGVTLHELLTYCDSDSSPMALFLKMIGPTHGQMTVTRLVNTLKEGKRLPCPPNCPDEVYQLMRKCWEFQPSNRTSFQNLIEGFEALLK

Regarding `Cc1cc(Nc2ncc3ncc(=O)n(-c4ccc(N)cc4)c3n2)ccc1N1CCN(C)CC1`, the Activity in assay [1] was 0%; in assay [2], 80.55%; in assay [3] it was 0%; in assay [4], “Dose-dependent effect”; in assay [6] it was 16.4%; in [7], 38.4%. In addition, the Activity in assay [8] was 34.3%; in [9] it was 68.6%; in assay [17], less than 1%; in [18] it was less than 1%; in assay [21] it was 12.02%; in assay [22], less than 1%. Also, the viability at 0.001 µM in [5] was found to be 90.3%. Moreover, the IC50 in assay [10] was 2120 nM; in assay [11], greater than 10000 nM; in assay [12] it was 4460 nM; in assay [23] it was 1.56 nM; in assay [24] it was 4120 nM. The TGI entry in [13] is “Dose-dependent effect”. Besides, in assay [14], the inhibition in vivo at 25 mg/kg came to 87%. Besides, the Kd worked out at 1.8 nM in assay [15] and 0.79 nM in assay [16]. Also, the result in [19] and in assay [20] was Active.

Source of the values: ChEMBL document CHEMBL4477208, “Discovery and Rational Design of Pteridin-7(8H)-one-Based Inhibitors Targeting FMS-like Tyrosine Kinase 3 (FLT3) and Its Mutants” (J Med Chem, 2016).
